Measurements as given in patent publication US4581354A, “3-arylcarbonyl- and 3-cycloalkylcarbonyl-1-aminoalkyl-1H-indoles, compositions and use” (Sterling Drug Inc., priority 1985, dated 1986).
Structures can show the parent of a compound that is named as a salt. Where two headings read alike, the source gives them in different places.

System: acetylcholine-induced abdominal constriction
Test: animal or person
Assay type: in vivo, mice
Conditions: Mus musculus; for inhibition in vivo at 1000 mg/kg: 1000 mg./kg. oral; for ED50: read-out: Ach ED50; for inhibition in vivo at 300 mg/kg: 300 mg./kg. oral; for inhibition in vivo at 30 mg/kg: 30 mg./kg. oral; for inhibition in vivo at 550 mg/kg: 550 mg./kg. oral; for inhibition in vivo at 100 mg/kg: 100 mg./kg. oral
Source text: The test procedures used to determine the analgesic activities of the compounds have been described in detail in the prior art and are as follows: The acetylcholine-induced abdominal constriction test, which is a primary analgesic screening test designed to measure the ability of a test agent to suppress acetylcholine-induced abdominal constriction in mice, described by Collier et al., Brit. J. Pharmacol. Chemotherap. 32, 295 (1968); a modification of the anti-bradykinin test, which is also a primary analgesic screening procedure, described by Berkowitz et al., J. Pharmacol. Exptl. Therap. 177, 500-508 (1971), Blane et al., J. Pharm. Pharmacol. 19, 367-373 (1967), Botha et al., Eur. J. Pharmacol. 6, 312-321 (1969) and Deffenu et al., J. Pharm. Pharmacol. 18, 135 (1966); and the rat paw flexion test, described by Kuzuna et al., Chem. Pharm. Bull., 23, 1184-1191 (1975), Winter et al., J. Pharm. Exptl. Therap., 211, 678-685 (1979) and Capetola et al., J. Pharm. Exptl. Therap. 214, 16-23 (1980).
Unless noted otherwise, all data were obtained on oral administration and are expressed either as the ED50 or as the percent inhibition at a given dose level (thus 30/100 or 30% inhibition at […].)
In some instances, the compounds were retested two or more times, and ED50 values were calculated for each series of repeat tests. In such instances, each of the ED50 values so-obtained is given in a series of values, thus 6, 28, 30, 43 in the case of the species of Example 1AW in the acetylcholine-induced abdominal constriction test.

[1] = po, read-out: Ach percent inhibition

SMILES	ED50 (po)	inhibition in vivo at 100 mg/kg [1]	also measured
Cc1c(C(=O)c2ccc(F)cc2)c2ccccc2n1CCN1CCOCC1 [Example 1Q, 3-(4-fluorobenzoyl)-2-methyl-1-[2-(4-morpholinyl)ethyl]-1H-indole]			inhibition in vivo at 24 mg/kg (po, 24 mg./kg. oral, read-out: Ach percent inhibition): 7%; inhibition in vivo at 79 mg/kg (po, 79 mg./kg. oral, read-out: Ach percent inhibition): 27%; inhibition in vivo at 238 mg/kg (po, 238 mg./kg. oral, read-out: Ach percent inhibition): 60%; inhibition in vivo at 435 mg/kg (po, 435 mg./kg. oral, read-out: Ach percent inhibition): 67%; inhibition in vivo at 793 mg/kg (po, 793 mg./kg. oral, read-out: Ach percent inhibition): 60%; inhibition in vivo at 1000 mg/kg [1]: 67%
Cc1c(C(=O)c2ccc3c(c2)OCO3)c2ccccc2n1CCN1CCOCC1 [Example 1R]	198 mg/kg		
Cc1c(C(=O)c2csc3ccccc23)c2ccccc2n1CCN1CCOCC1 [Example 1T]	106 mg/kg		ED50 (iv): 3.8 mg/kg
COc1ccccc1C(=O)c1c(C)n(CCN2CCOCC2)c2ccccc12 [Example 1U, 2-methyl-3-(2-methoxybenzoyl)-1-[2-(4-morpholinyl)ethyl]-1H-indole]	155 mg/kg		
COc1ccc(C(=O)c2c(C)n(CCN3CCOCC3)c3ccccc23)cc1F [Example 1V]			inhibition in vivo at 300 mg/kg [1]: 20%
Cc1c(C(=O)c2ccc3ccccc3c2)c2ccccc2n1CCN1CCOCC1 [Example 1W]			inhibition in vivo at 1 mg/kg (iv, 1 mg./kg. i.v., read-out: Ach percent inhibition): 10%; inhibition in vivo at 1.73 mg/kg (iv, 1.73 mg./kg. i.v., read-out: Ach percent inhibition): 0%; inhibition in vivo at 3 mg/kg (iv, 3 mg./kg. i.v., read-out: Ach percent inhibition): 86%; inhibition in vivo at 30 mg/kg [1]: 0%; inhibition in vivo at 300 mg/kg [1]: 40%; inhibition in vivo at 550 mg/kg [1]: 47%
COc1ccc(C(=O)c2cn(CCN3CCOCC3)c3ccc(C)cc23)cc1 [Example 1X]			inhibition in vivo at 300 mg/kg [1]: 7%
Cc1c(C(=O)c2cccc(F)c2)c2ccccc2n1CCN1CCOCC1 [Example 1Y]		30%	
Cc1c(C(=O)c2ccccc2F)c2ccccc2n1CCN1CCOCC1 [Example 1Z, 3-(2-fluorobenzoyl)-2-methyl-1-[2-(4-morpholinyl)-ethyl]-1H-indole]	68 mg/kg		
Cc1c(C(=O)c2ccc(S(C)(=O)=O)cc2)c2ccccc2n1CCN1CCOCC1 [Example 2-O]		20%	
Cc1ccc(C(=O)c2cn(C(C)CN3CCOCC3)c3ccccc23)cc1 (stereo not shown) [Example 2A, 3-(4-methylbenzoyl)-1-[1-methyl-2-(4-morpholinyl)ethyl]-1H-indole]			inhibition in vivo at 30 mg/kg [1]: 7%; inhibition in vivo at 300 mg/kg [1]: 60%; inhibition in vivo at 550 mg/kg [1]: 73%; inhibition in vivo at 1000 mg/kg [1]: 67%
COc1ccc(C(=O)c2c(Cl)n(CCN3CCOCC3)c3ccccc23)cc1 [Example 2AB]	91 mg/kg		
CCCc1ccc(C(=O)c2c(C)n(CCN3CCOCC3)c3ccccc23)cc1 [Example 2AC]		30%	
Cc1ccccc1C(=O)c1c(C)n(CCCN2CCOCC2)c2ccc(F)cc12 [Example 2AD]		10%	
Cc1c(C(=O)c2ccc(F)cc2)c2cc(F)ccc2n1CCCN1CCOCC1 [Example 2AE]		20%	
Cc1c(C(=O)c2ccoc2)c2cc(F)ccc2n1CCCN1CCOCC1 [Example 2AF]		30%	
Cc1c(C(=O)C=Cc2ccccc2)c2cc(F)ccc2n1CCCN1CCOCC1 [Example 2AG]	143 mg/kg		
Cc1c(C(=O)c2ccc(F)cc2F)c2cc(F)ccc2n1CCN1CCOCC1 [Example 2AH]		20%	
Cc1c(C(=O)c2cccc3ccccc23)c2ccccc2n1C(C)CN1CCOCC1 (stereo not shown) [Example 2AK]			inhibition in vivo at 0.3 mg/kg (iv, 0.3 mg./kg. i.v., read-out: Ach percent inhibition): 30%

SMILES	ED50 (po)	inhibition in vivo at 100 mg/kg [1]	also measured
O=C(c1cccc2ccccc12)c1cn(CCN2CCOCC2)c2ccccc12 [Example 2AL]			inhibition in vivo at 0.1 mg/kg (iv, 0.1 mg./kg. i.v., read-out: Ach percent inhibition): 20%
Cc1c(C(=O)c2ccc3occc3c2)c2ccccc2n1CCN1CCOCC1 [Example 2AM]		80%	
Cc1c(C(=O)c2ccc(F)cc2F)c2ccccc2n1CCN1CCOCC1 [Example 2AN]	90 mg/kg		
Cc1c(C(=O)c2ccc(F)cc2F)c2cc(F)ccc2n1CCCN1CCOCC1 [Example 2AO]		40%	
COc1ccc(C(=O)c2c(C)n(CCN3CCOCC3)c3ccccc23)c(F)c1 [Example 2AP]	27 mg/kg		
Cc1c(C(=O)c2ccc(Br)cc2)c2cc(F)ccc2n1CCCN1CCOCC1 [Example 2AR]		50%	
Cc1cccc(C(=O)c2c(C)n(CCN3CCOCC3)c3ccccc23)c1C [Example 2AT]		20%	
Cc1c(C(=O)c2cc(Cl)cc(Cl)c2)c2ccccc2n1CCN1CCOCC1 [Example 2AU]		30%	
Cc1cc(C)cc(C(=O)c2c(C)n(CCN3CCOCC3)c3ccccc23)c1 [Example 2AV]		10%	
Cc1cccc(C(=O)c2c(C)n(CCN3CCOCC3)c3ccccc23)c1 [Example 2AW]		20%	
Cc1c(C(=O)c2cccc(Cl)c2)c2ccccc2n1CCN1CCOCC1 [Example 2AX]		0%	
Cc1c(C(=O)c2ccccc2Cl)c2ccccc2n1C(C)CN1CCOCC1 (stereo not shown) [Example 2AZ]	26 mg/kg		
Cc1c(C(=O)c2ccccc2F)c2cc(F)ccc2n1CCCN1CCOCC1 [Example 2BB, 5-fluoro-3-(2-fluorobenzoyl)-2-methyl-1-[3-(4-morpholinyl)propyl]-1H-indole]		40%	
Cc1c(C(=O)c2ccoc2)c2ccccc2n1CCN1CCOCC1 [Example 2BC]		10%	
Cc1c(C(=O)c2ccccc2F)c2cc(F)ccc2n1C(C)CN1CCOCC1 (stereo not shown) [Example 2BD]	15 mg/kg		
Cc1c(C(=O)c2ccc(Br)cc2)c2ccccc2n1CCN1CCOCC1 [Example 2BE]		30%	
Cc1c(C(=O)c2ccc3[nH]cnc3c2)c2ccccc2n1CCN1CCOCC1 [Example 2BF]		30%	
Cc1ccc(C(=O)c2c(C)n(C(C)CN3CCOCC3)c3ccccc23)cc1 (stereo not shown) [Example 2B]			inhibition in vivo at 300 mg/kg [1]: 47%; inhibition in vivo at 550 mg/kg [1]: 33%
CC(CN1CCOCC1)n1cc(C(=O)c2ccc(F)cc2)c2ccccc21 (stereo not shown) [Example 2D]		20%	inhibition in vivo at 300 mg/kg [1]: 40%; inhibition in vivo at 1000 mg/kg [1]: 67%

SMILES	ED50 (po)	inhibition in vivo at 100 mg/kg [1]	also measured
CC(CN1CCOCC1)n1cc(C(=O)c2ccccc2F)c2ccccc21 (stereo not shown) [Example 2E]	33 mg/kg		
CC(CN1CCOCC1)n1cc(C(=O)c2cccn2C)c2ccccc21 (stereo not shown) [Example 2F]		40%	inhibition in vivo at 30 mg/kg [1]: 20%; inhibition in vivo at 300 mg/kg [1]: 33%
Cc1c(C(=O)c2ccc(F)cc2)c2ccccc2n1C(C)CN1CCOCC1 (stereo not shown) [Example 2G]	42 mg/kg		
Cc1c(C(=O)c2cccn2C)c2ccccc2n1C(C)CN1CCOCC1 (stereo not shown) [Example 2H]	49 mg/kg		
Cc1cccc2c(C(=O)c3ccccc3)cn(C(C)CN3CCOCC3)c12 (stereo not shown) [Example 2J]	60 mg/kg		
Cc1c(C(=O)c2ccccc2C#N)c2ccccc2n1CCN1CCOCC1 [Example 2L]		10%	
Cc1c(C(=O)c2cccc(C#N)c2)c2ccccc2n1CCN1CCOCC1 [Example 2M]		20%	
Cc1c(C(=O)c2ccn(C)c2)c2ccccc2n1CCN1CCOCC1 [Example 2N]		20%	
Cc1c(C(=O)c2ccsc2)c2ccccc2n1CCN1CCOCC1 [Example 2P]		30%	
Cc1c(C(=O)C2CCCCC2)c2ccccc2n1CCN1CCOCC1 [Example 2Q]		20%	
Cc1c(C(=O)c2ccc(C(C)(C)C)cc2)c2ccccc2n1CCN1CCOCC1 [Example 2R]		10%	
Cc1c(C(=O)c2cc3ccccc3s2)c2ccccc2n1CCN1CCOCC1 [Example 2S]		0%	
Cc1c(C(=O)c2cccn2C)c2ccccc2n1CCN1CCOCC1 [Example 2T]		30%	
Cc1ccccc1C(=O)c1c(C)n(CCN2CCOCC2)c2ccccc12 [Example 2U]	88 mg/kg		
Cc1ccc(C(=O)c2c(C)n(CCN3CCOCC3)c3ccccc23)cc1C [Example 2V]		20%	
Cc1c(C(=O)C=Cc2ccccc2)c2ccccc2n1CCN1CCOCC1 [Example 2W]	72 mg/kg		
COc1ccc(C(=O)c2c(C)n(CCN(C)CCO)c3ccccc23)cc1 [Example 3-O]	76 mg/kg		
COc1ccc(C(=O)c2c(C)n(CCN3CCC(O)CC3)c3ccccc23)cc1 [Example 3A, 2-methyl-3-(4-methoxybenzoyl)-1-[2-(4-hydroxy-1-piperidinyl)ethyl]-1H-indole hydrochloride hemihydrate]	68.1 mg/kg		
COc1ccc(C(=O)c2c(C)n(CCCCN3CCOCC3)c3ccccc23)cc1 [Example 3AA]	22 mg/kg		
